Results: the SangsterLogP compilation

Compound | logP
O=C(O)c1cc(Cl)ccc1O | 2.9
Cc1cc(I)c(O)c(I)c1 | 4.2
O=[N+]([O-])c1ccc(Cl)c(O)c1 | 2.4
CCCCN(CCCC)SN(C)C(=O)Oc1cccc2c1OC(C)(C)C2 | 5
CC(=O)Oc1c(I)cc(C#N)cc1I | 3.8
NC(=S)c1cc(I)c(O)c(I)c1 | 3.2
CCCCCCCC(=O)Oc1c(I)cc(C#N)cc1I | 6.8
COc1ccccc1[N+](=O)[O-] | 2
N#Cc1cc(I)c(O)c([N+](=O)[O-])c1 | 2.7
O=C(O)c1cc(I)c(O)c(I)c1 | 3.7
CSc1ccc(O)cc1C | 2.3
CS(=O)(=O)c1c(F)c(F)c(F)c(F)c1F | 1.2
Fc1c(F)c(F)c(S)c(F)c1F | 2
COc1c(I)cc(C#N)cc1I | 4.1
Fc1c(F)c(F)c(C(F)(F)F)c(F)c1F | 3
COc1c(I)cc(C#N)cc1[N+](=O)[O-] | 2.9
N#Cc1cc(I)cc(I)c1O | 4.1
Cc1cc(O)ccc1Cl | 3.1
COC(=O)c1cc(I)c(O)c(I)c1 | 3.9
N#Cc1cc(I)c(O)c(I)c1 | 3.8
CNC(=O)Oc1c(I)cc(C#N)cc1I | 3.3
CC(C)C(=O)Oc1c(I)cc(C#N)cc1I | 4.6
CSc1c(C)cc(O)cc1C | 2.8
